Assay results published in US20180057530A1, “CYCLIC PEPTIDE COMPOUND, AND PREPARATION AND USE THEREOF” (Zhejiang Hisun Pharmaceutical Co., Ltd., priority 2015, published 2018).
Several values for one entry are separate records, joined by “and”; a condition that tells them apart may be missing. Equal values may be shown once. Marks after values point to notes of the source that are not given here.

Assays:
[1] = system: Human breast cancer cells (MDA-MB-231); assay: MTT tumor cell growth inhibition, MDA-MB-231; format: cell-based; details: MDA-MB-231, MTT, 72 hours, relative IC50
Source text: (§1) The tetrazolium salt (MTT) reduction method was used to test the activity of the compounds of the present invention. Human breast cancer cells (MDA-MB-231) (CAS cell library; catalog number: TCHu227), human lung cancer cells (A549) (ATCC® Number: CRM-CCL-185™), human colon cancer cells (HCT-116) (CAS cell library; catalog number: TCHu99), acute monocytic leukemia cells (MV4-11) (ATCC® Number: CRL-9591™), tissue cell lymphoma cells (U-937) (CAS cell library; catalog number: TCHu159), human acute promyelocytic leukemia cells (HL-60) (ATCC® Number: CCL-240™), chronic myelogenous leukemia cells (of K562) (CAS cell library; catalog number: TCHu191), human hepatocellular carcinoma cells (BEL-7404) (CAS cell library; catalog number: TCHu64), human pancreatic cancer cells (BxPC3) (ATCC® Number: […])) and human prostate cancer cells (PC-3) (ATCC®Number: […]) were inoculated in 96-well plates, 90 μL/well, with 3000 to 8000 cells in respective well; in the first row of plate, 100 μL/well culture medium was added; the 96-well plate was pre-incubated in an incubator at 37° C., 5% CO2, and 100% relative humidity for 24 hours.
(§2) A compound was weighed and configured to a 10 mM/L stock solution, and the compound was diluted three-fold sequentially from the highest concentration of 2 millimoles (mM); 95 μl the corresponding cell medium was added to each well of a V-bottom dispensing plate; 5 μl of the compound on a 200× plate was transferred to a 10× dispensing plate according to the concentration; 5 μl of dimethylsulfoxide (DMSO) was evenly mixed in the corresponding 95 μl cell culture medium as a vehicle control. 10 μl of the compound-medium in each well of the 10× dispensing plate was added to a 96-well plate already plated with cells. […]
(§3) After the compound for cells was treated for 72 hours, 20 microliters of 5 mg/ml MTT was added to each well; all the steps need to be aseptic. […] The absorbance at 490 nm was read on a SpectraMax M2e instrument. The compound activity (relative IC50) was calculated using GraphPad Prism software.

[2] = system: human lung cancer cells (A549); assay: MTT tumor cell growth inhibition, A549; format: cell-based; details: 72 hours, relative IC50
Source text: as §1, §2, §3

[3] = system: human colon cancer cells (HCT-116); assay: MTT tumor cell growth inhibition, HCT-116; format: cell-based; details: HCT-116, MTT, 72 hours, relative IC50
Source text: as §1, §2, §3

[4] = system: acute monocytic leukemia cells (MV4-11); assay: MTT tumor cell growth inhibition, MV4-11; format: cell-based; details: Homo sapiens; MV4-11, MTT, 72 hours, relative IC50
Source text: as §1, §2, §3

[5] = system: tissue cell lymphoma cells (U-937); assay: MTT tumor cell growth inhibition, U-937; format: cell-based; details: Homo sapiens; U-937, MTT, 72 hours, relative IC50
Source text: as §1, §2, §3

[6] = system: human acute promyelocytic leukemia cells (HL-60); assay: MTT tumor cell growth inhibition, HL-60; format: cell-based; details: HL-60, MTT, 72 hours, relative IC50
Source text: as §1, §2, §3

[7] = system: chronic myelogenous leukemia cells (K562); assay: MTT tumor cell growth inhibition, K562; format: cell-based; details: Homo sapiens, 72 hours, relative IC50
Source text: as §1, §2, §3

[8] = system: human hepatocellular carcinoma cells (BEL-7404); assay: MTT tumor cell growth inhibition, BEL-7404; format: cell-based; details: BEL-7404, MTT, 72 hours, relative IC50
Source text: as §1, §2, §3

[9] = system: human pancreatic cancer cells (BxPC3); assay: MTT tumor cell growth inhibition, BxPC3; format: cell-based; details: BXPC-3, 72 hours, relative IC50
Source text: as §1, §2, §3

[10] = system: human prostate cancer cells (PC-3); assay: MTT tumor cell growth inhibition, PC-3; format: cell-based; details: PC-3, MTT, 72 hours, relative IC50
Source text: as §1, §2, §3

tumor cells = assay: MTT tumor cell growth inhibition, summary over the cell line panel; format: cell-based; details: ten tumor cell lines of Table 2, MTT, 72 hours; read-out: IC50 of tumor cell proliferation inhibition, span over the tested cell lines
Source text: as §1, §2, §3

[11] = system: Human breast cancer cell line MDA-MB-231; assay: In vivo pharmacodynamic study of compound A, MDA-MB-231 nude mice transplanted tumor model; parameters: species or system BALB/C nude mice; details: MDA-MB-231 model, 2.4 mg/kg, q4d, 4x
Description: (§4) Female BALB/C nude mice 6 weeks to 8 weeks old and weighing about 19 g to 29 g were taken (Supplier: Beijing Vital River Laboratory Animal Technology Co., Ltd.) and raised for a week. A human cancer nude mice […] transplanted tumor model was established: Human breast cancer cell line MDA-MB-231 (ATCC® Number: HTB-26™) and human lung cancer cell line NCI-H460 (ATCC® Number: HTB-177™) were incubated. The monolayer tumor cells were digested and detached; then, they were collected and resuspended in a serum-free culture medium, and then were adjusted to a concentration of 2×10^6/0.2 mL. They were put into an iced box and brought to an animal house. A syringe with a No. 6 needle was used to directly take a 0.2 mL cell suspension and transplanted it into the rear subcutaneous scapular regions of the left axillaries of the nude mice at 2×10^6/0.2 mL per mouse. Tumor volumes were measured once every 2 days to 3 days. After two weeks, tumor-bearing nude mice with vigorous tumor growth and no ulceration were selected, the tumors were removed from them under sterile conditions. The tumor tissues were cut to about 2 mm to 3 mm in diameter and inoculated in the rear subcutaneous scapular regions of the left axillaries of the nude mice. After passage for three generations, when the tumor volume grew to 100 mm^3, nude mice with tumor masses that were too large or too small were removed and randomly grouped for administration.
(§5) The mice were randomly divided into five groups, including the negative control group (vehicle), positive control group (Romidepsin, 2.4 mg/kg), treatment group with the high, medium, and low doses of compound A (respectively 7.2 mg/kg, 4.8 mg/kg, 2.4 mg/kg, wherein the high dose was lower than the maximum tolerated dose, MTD); there were six nude mice in each group; intravenous administration was given every 4 days; 4 doses were given. During the period, the weights and tumor volumes of the animals were measured every 2 days, and the number of animal deaths was recorded. 24 hours after the last administration, the animals were sacrificed. The tumor volumes, tumor weights, and body weights of nude mice were measured; tumor volume growth curves, nude mice weight growth curves and tumor inhibition rates, mortality of the animals were plotted; the relative tumor proliferation rate T/C (%) was calculated; according to the formula T/C (%)=TRTV/CRTV*100%. (TRTV: treatment group RTV; CRTV: negative control group RTV, relative tumor volume RTV=Vt/V0, wherein V0 is the tumor volume at the time of administration by group; Vt is the post-administration tumor volume).

[12] = system: human lung cancer cell line NCI-H460; assay: In vivo pharmacodynamic study of compound A, NCI-H460 nude mice transplanted tumor model; parameters: species or system BALB/C nude mice; details: 2.4 mg/kg, q4d, 4x
Description: as §4, §5

blood cells = assay: Effect on blood phase, complete blood count (CBC) analysis; format: in vivo, BAB-C mice; details: mice, 0.5 mg/kg; for PLT / RBC / WBC: mean±SD
Description: BAB-C mice (6 to 8 weeks old, a half being males and the other half females, weighing about 18 g-25 g, supplier: Beijing Vital River Laboratory Animal Technology Co., Ltd.) were raised for one week and then divided into three groups: normal control group, Romidepsin group, and compound A group. The normal group was injected with the vehicle; the drug group was injected with 0.5 mg/kg of the drug; 24 hours and 48 hours respectively after administration, a complete blood count (CBC) analysis was performed; for all the data, mean±standard deviation (mean±SD) was adopted; T tests were performed between inter-group data.

MDA-MB-231 breast cancer = assay: In vivo efficacy study of compound B, xenografted MDA-MB-231 breast cancer; parameters: species or system BALB/c nude mice; details: once a week for four weeks
Description: Female BALB/C nude mice 6 weeks to 8 weeks old and weighing about 19 g to 29 g were taken and raised for one week (supplier: Beijing Vital River Laboratory Animal Technology Co., Ltd.) MDA-MB-231 (ATCC® Number: HTB-26™) breast cancer cells were cultured in vitro; the culture conditions were: 10% fetal bovine serum was added to an L-15 medium, 37° C., and 0% CO2. Passage was performed twice a week. When the cells were in the exponential growth phase, the cells were collected, counted, and inoculated. […] The cells were suspended in phosphate buffered saline (PBS) and Matrigel (1:1) was added. A total of 50 mice were inoculated. […] The experimental indicator was to examine whether the tumor growth was inhibited, delayed, or subsided. Tumor diameter was measured three times a week with a vernier caliper. The formula for calculating tumor volume is as follows: […] The antitumor efficacy of the compound was evaluated with T/C (%) and of TGI. […] T0 indicates the mean tumor volume of the treatment group at the time of administration by cage; Vi indicates the mean tumor volume of the vehicle group on the same day; V0 indicates the mean tumor volume of the vehicle group at the time of administration by cage. At the end of the experiment, the tumors were stripped, weighed, and photographed.

C/C=C1\NC(=O)[C@H]2CSSCC/C=C/[C@H](CC(=O)N[C@H](C(C)C)C(=O)N2)OC(=O)[C@H](C(C)C)NC1=O [Romidepsin, reference compound]
IC50 [1]: 3.6 nM | IC50 [2]: 5.2 nM | IC50 [3]: 6.5 nM | IC50 [4]: 6.8 nM | IC50 [5]: 7.2 nM | IC50 [6]: 8.6 nM | IC50 [7]: 4.1 nM | IC50 [8]: 6.4 nM | IC50 [9]: 8.7 nM | IC50 [10]: 7.1 nM | IC50 (tumor cells): 3.6 to 8.7 nM | Relative tumor proliferation rates T/C (%) [11]: 48.9%(2.4 mg/kg, q4d, 4x) | Relative tumor proliferation rates T/C (%) [12]: 42.2%(2.4 mg/kg, q4d, 4x) | PLT (blood cells; 24 h after administration): 600.56 ± 71.51** 1 × 10*9/L | RBC (blood cells; 24 h after administration): 10.30 ± 0.47 1 × 10*12/L | WBC (blood cells; 24 h after administration): 4.32 ± 2.61** 1 × 10*9/L | PLT (blood cells; 48 h after administration): 431.31 ± 64.96** 1 × 10*9/L | RBC (blood cells; 48 h after administration): 10.23 ± 0.78 1 × 10*12/L | WBC (blood cells; 48 h after administration): 6.92 ± 3.29** 1 × 10*9/L | WBC count decrease (blood cells; at 24 h, vs normal group): 75% | PLT compared with the normal group (blood cells; at 24 h and 48 h): significantly decreased | WBC count restored to percent of the normal group (blood cells; at 48 h): 40% | Day 28 tumor volume (MDA-MB-231 breast cancer; 6.6 mg/kg intravenous, mean ± standard error): 260 mm^3 and 260 ± 103 mm^3 | T/C (%) (MDA-MB-231 breast cancer; day 28, 6.6 mg/kg intravenous): 11.4% | TGI (%) (MDA-MB-231 breast cancer; day 28, 6.6 mg/kg intravenous): 88.6%
